Measured values taken from PubChem BioAssay (NCI).
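Cells were grown in 96-well plates and exposed to each compound for 48 hours at five concentrations; endpoints were interpolated linearly between bracketing concentrations, or set to the highest concentration if not reached. GI50 marks 50% less growth. TGI marks complete inhibition of growth.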

Assays:
Experiment in all cases: growth of human tumour cells (NCI), 48 h
[1] = test system: 786-0 renal
[2] = test system: A498 renal
[3] = test system: A549 NSCLC
[4] = test system: ACHN renal
[5] = test system: BT-549 breast
[6] = test system: CAKI-1 renal
[7] = test system: CCRF-CEM leukemia
[8] = test system: COLO 205 colon
[9] = test system: DU-145 prostate
[10] = test system: EKVX NSCLC
[11] = test system: HCC-2998 colon
[12] = test system: HCT-116 colon
[13] = test system: HCT-15 colon
[14] = test system: HOP-62 NSCLC
[15] = test system: HOP-92 NSCLC
[16] = test system: HS 578T breast
[17] = test system: HT29 colon
[18] = test system: IGROV1 ovarian
[19] = test system: KM12 colon
[20] = test system: LOX IMVI melanoma
[21] = test system: M14 melanoma
[22] = test system: MALME-3M melanoma
[23] = test system: MCF7 breast
[24] = test system: MDA-MB-231 breast
[25] = test system: MDA-MB-435
[26] = test system: MDA-MB-468 breast
[27] = test system: MOLT-4 leukemia
[28] = test system: NCI-H226 lung
[29] = test system: NCI-H23 lung
[30] = test system: NCI-H460 lung
[31] = test system: NCI-H522 lung
[32] = test system: NCI/ADR-RES ovarian
[33] = test system: OVCAR-3 ovarian
[34] = test system: OVCAR-4 ovarian
[35] = test system: OVCAR-5 ovarian
[36] = test system: OVCAR-8 ovarian
[37] = test system: PC-3 prostate
[38] = test system: RPMI-8226 leukemia
[39] = test system: RXF 393 renal
[40] = test system: SF-268 CNS
[41] = test system: SF-295 CNS
[42] = test system: SF-539 CNS
[43] = test system: SK-MEL-2 melanoma
[44] = test system: SK-MEL-28 melanoma
[45] = test system: SK-MEL-5 melanoma
[46] = test system: SK-OV-3 ovarian
[47] = test system: SN12C renal
[48] = test system: SNB-19 CNS
[49] = test system: SNB-75 CNS
[50] = test system: SR leukemia
[51] = test system: SW-620 colon
[52] = test system: T-47D breast
[53] = test system: TK-10 renal
[54] = test system: U251 CNS
[55] = test system: UACC-257 melanoma
[56] = test system: UACC-62 melanoma
[57] = test system: UO-31 renal

Structure (SMILES): Cn1cc(-c2cc(N)n3nc(-c4c[nH]c5ccccc45)cc3n2)c2cc(F)ccc21
- GI50 [1]: 1.49 µM
- TGI [1]: 2.95 µM
- GI50 [2]: 11.6 µM
- TGI [2]: 26.6 µM
- GI50 [3]: 2.84 µM
- TGI [3]: 11.1 µM
- GI50 [4]: 2.07 µM
- TGI [4]: 4.81 µM
- GI50 [5]: 17.6 µM
- TGI [5]: 34.2 µM
- GI50 [6]: 1.97 µM
- TGI [6]: 4.73 µM
- GI50 [7]: 2.23 µM
- TGI [7]: 5.75 µM
- GI50 [8]: 2.17 µM
- TGI [8]: 4.33 µM
- GI50 [9]: 3.7 µM
- TGI [9]: 13.3 µM
- GI50 [10]: 1.99 µM
- TGI [10]: 4.86 µM
- GI50 [11]: 1.69 µM
- TGI [11]: 3.18 µM
- GI50 [12]: 1.71 µM
- TGI [12]: 3.24 µM
- GI50 [13]: 1.79 µM
- TGI [13]: 3.78 µM
- GI50 [14]: 2.83 µM
- TGI [14]: 13.9 µM
- GI50 [15]: 2.06 µM
- TGI [15]: 4.46 µM
- GI50 [16]: 3.91 µM
- TGI [16]: 21.7 µM
- GI50 [17]: 1.89 µM
- TGI [17]: 3.96 µM
- GI50 [18]: 2.18 µM
- TGI [18]: 5.61 µM
- GI50 [19]: 2.12 µM
- TGI [19]: 4.64 µM
- GI50 [20]: 1.74 µM
- TGI [20]: 3.11 µM
- GI50 [21]: 1.86 µM
- TGI [21]: 3.98 µM
- GI50 [22]: 1.75 µM
- TGI [22]: 3.18 µM
- GI50 [23]: 1.95 µM
- TGI [23]: 4.34 µM
- GI50 [24]: 1.98 µM
- TGI [24]: 3.63 µM
- GI50 [25]: 1.93 µM
- TGI [25]: 4.01 µM
- GI50 [26]: 1.52 µM
- TGI [26]: 2.97 µM
- GI50 [27]: 2.32 µM
- TGI [27]: 6.32 µM
- GI50 [28]: 10.7 µM
- TGI [28]: 45.2 µM
- GI50 [29]: 1.91 µM
- TGI [29]: 4.22 µM
- GI50 [30]: 2.2 µM
- TGI [30]: 4.99 µM
- GI50 [31]: 1.78 µM
- TGI [31]: 3.62 µM
- GI50 [32]: 2.35 µM
- TGI [32]: 6.35 µM
- GI50 [33]: 2.3 µM
- TGI [33]: 4.68 µM
- GI50 [34]: 2.76 µM
- TGI [34]: 8.16 µM
- GI50 [35]: 1.97 µM
- TGI [35]: 4.27 µM
- GI50 [36]: 3.35 µM
- TGI [36]: > 100 µM
- GI50 [37]: 2.48 µM
- TGI [37]: 9.08 µM
- GI50 [38]: 2.48 µM
- TGI [38]: 6.22 µM
- GI50 [39]: 1.9 µM
- TGI [39]: 4.19 µM
- GI50 [40]: 2.6 µM
- TGI [40]: 8.08 µM
- GI50 [41]: 1.71 µM
- TGI [41]: 3.39 µM
- GI50 [42]: 1.63 µM
- TGI [42]: 3.01 µM
- GI50 [43]: 2.06 µM
- TGI [43]: 4.91 µM
- GI50 [44]: 1.7 µM
- TGI [44]: 3.13 µM
- GI50 [45]: 1.85 µM
- TGI [45]: 3.73 µM
- GI50 [46]: 6.82 µM
- TGI [46]: 23.6 µM
- GI50 [47]: 2.44 µM
- TGI [47]: 7.03 µM
- GI50 [48]: 2.38 µM
- TGI [48]: 6.25 µM
- GI50 [49]: 5.15 µM
- TGI [49]: 20.3 µM
- GI50 [50]: 2.01 µM
- TGI [50]: > 100 µM
- GI50 [51]: 1.95 µM
- TGI [51]: 4 µM
- GI50 [52]: 2.05 µM
- TGI [52]: 4.92 µM
- GI50 [53]: 2.02 µM
- TGI [53]: 7.64 µM
- GI50 [54]: 1.97 µM
- TGI [54]: 4.09 µM
- GI50 [55]: 1.9 µM
- TGI [55]: 3.85 µM
- GI50 [56]: 1.71 µM
- TGI [56]: 3.19 µM
- GI50 [57]: 1.71 µM
- TGI [57]: 3.65 µM
